Assay results published in patent publication US20260297081A1, “COMPOUNDS AND METHODS OF TREATING CANCERS” (Cullgen Inc., priority 2023, published 2026).

Assays:
[1] = tested on: MCF7 cells; test: Anti-proliferation (viability) of MCF7 cells (Table 7, FIG. 2B); type: cell-based; conditions: Homo sapiens, MCF7, MCF7 cells, 3-6 days, 10-point serial dilution; read-out: GI IC50 in MCF-7
[2] = tested on: Calu-1 cells; test: Anti-proliferation (viability) of NSCLC Calu-1 cells, 3 days (Table 7, FIG. 2B); type: cell-based; conditions: Homo sapiens, 72 h; Calu-1 cells, 3 days, 10-point serial dilution; read-out: GI IC50 in Calu-1
Summary of the method: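 Cells were exposed to heterobifunctional compounds across a 10-point serial dilution, for 3 days with Calu-1 and 6 days with T47D. A negative control was included that keeps the DDB1 ligand and linker but carries a modified warhead that impairs CDK4 binding.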

SMILES | IC50 [1] | IC50 [2]
COc1cccc(NC(=O)c2ccc(NC(C)C)nc2NC2CCN(C(=O)CN3CCN(Cc4ccc(Nc5ncc6c(C)c(C(C)=O)c(=O)n(C7CCCC7)c6n5)nc4)CC3)CC2)n1 [CPD-533] | 0.05 to 0.1 µM | ≤ 0.01 µM
CC(=O)c1c(C)c2cnc(Nc3ccc(N4CCC(N(C)CC(=O)N5CCC(Nc6nc(NC(C)C)ccc6C(=O)Nc6cc(C)n(C)n6)CC5)CC4)cn3)nc2n(C2CCCC2)c1=O [CPD-465, 2-((1-(N-(1-(6-((6-acetyl-8-cyclopentyl-5-methyl-7-oxo-7,8-dihydropyrido[2,3-d]pyrimidin-2-yl)amino)pyridin-3-yl)piperidin-4-yl)-N-methylglycyl)piperidin-4-yl)amino)-N-(1,5-dimethyl-1H-pyrazol-3-yl)-6-(isopropylamino)nicotinamide] | < 0.05 µM | ≤ 0.01 µM
CC(=O)c1c(C)c2cnc(Nc3ccc(N4CCC(N5CCC(C(=O)NC6CCC(Nc7nc(NC(C)C)ccc7C(=O)Nc7ccc(N(C)C)nn7)CC6)C5)CC4)cn3)nc2n(C2CCCC2)c1=O (centres unmarked) [CPD-462, 2-((4-(1-(1-(6-((6-acetyl-8-cyclopentyl-5-menthyl-7-oxo-7,8-dihydropyrido[2,3-d]pyrimidin-2-yl)amino)pyridin-3-yl)piperidin-4-yl)pyrrolidine-3-carboxamido)cyclohexyl)amino)-N-(6-(dimethylamino)pyridazin-3-yl)-6-(isopropylamino)nicotinamide] | > 0.1 µM | 0.01 to 0.05 µM
[2H]C([2H])([2H])Nc1ccc(C(=O)Nc2cccc(C)n2)c(NC2CCN(C(=O)CN3CCN(c4ccc(Nc5ncc6c(C)c(C(C)=O)c(=O)n(C7CCCC7)c6n5)nc4)CC3)CC2)n1 [CPD-270, 2-((1-(2-(4-(6-((6-acetyl-8-cyclopentyl-5-methyl-7-oxo-7,8-dihydropyrido[2,3-d]pyrimidin-2-yl)amino)pyridin-3-yl)piperazin-1-yl)acetyl)piperidin-4-yl)amino)-6-((methyl-d3)amino)-N-(6-methylpyridin-2-yl)nicotinamide] | > 0.1 µM | ≥ 0.05 µM
CC(=O)c1c(C)c2cnc(Nc3ccc(N4CCC(N5CCC[C@H]5C(=O)NCC5CC(Nc6nc(NC(C)C)ccc6C(=O)Nc6ccc(N(C)C)nn6)C5)CC4)cn3)nc2n(C2CCCC2)c1=O (stereo partly drawn) [CPD-542, (S)-2-((3-((1-(1-(6-((6-acetyl-8-cyclopentyl-5-methyl-7-oxo-7,8-dihydropyrido[2,3-d]pyrimidin-2-yl)amino)pyridin-3-yl)piperidin-4-yl)pyrrolidine-2-carboxamido)methyl)cyclobutyl)amino)-N-(6-(dimethylamino)pyridazin-3-yl)-6-(isopropylamino)nicotinamide] | > 0.1 µM | ≤ 0.01 µM
[2H]C([2H])([2H])Nc1ccc(C(=O)Nc2ccc(N(C)C)nn2)c(NC2CC(C(=O)N3CCC(N4CCN(c5ccc(Nc6ncc7c(C)c(C(C)=O)c(=O)n(C8CCCC8)c7n6)nc5)CC4)C3)C2)n1 (centres unmarked) [CPD-471, 2-((3-(3-(4-(6-((6-acetyl-8-cyclopentyl-5-methyl-7-oxo-7,8-dihydropyrido[2,3-d]pyrimidin-2-yl)amino)pyridin-3-yl)piperazin-1-yl)pyrrolidine-1-carbonyl)cyclobutyl)amino)-N-(6-(dimethylamino)pyridazin-3-yl)-6-((methyl-d3)amino)nicotinamide] | < 0.05 µM | ≤ 0.01 µM
[2H]C([2H])([2H])Nc1ccc(C(=O)Nc2cn3c(n2)CCC3)c(N[C@H]2CC[C@H](C(=O)N3CCC(N4CCN(c5ccc(Nc6ncc7c(C)c(C(C)=O)c(=O)n(C8CCCC8)c7n6)nc5)CC4)C3)CC2)n1 (stereo partly drawn) [CPD-569, 2-((trans-4-(3-(4-(6-((6-acetyl-8-cyclopentyl-5-methyl-7-oxo-7,8-dihydropyrido[2,3-d]pyrimidin-2-yl)amino)pyridin-3-yl)piperazin-1-yl)pyrrolidine-1-carbonyl)cyclohexyl)amino)-N-(6,7-dihydro-5H-pyrrolo[1,2-a]imidazol-2-yl)-6-((methyl-d3)amino)nicotinamide] | > 0.1 µM | ≥ 0.05 µM
CC(=O)c1c(C)c2cnc(Nc3ccc(N4CCC(N5CCC(C(=O)NCC6CC(Nc7nc(NC(C)C)ccc7C(=O)Nc7ccc(N(C)C)nn7)C6)C5)CC4)cn3)nc2n(C2CCCC2)c1=O (centres unmarked) [CPD-461, 2-((3-((1-(1-(6-((6-acetyl-8-cyclopentyl-5-methyl-7-oxo-7,8-dihydropyrido[2,3-d]pyrimidin-2-yl)amino)pyridin-3-yl)piperidin-4-yl)pyrrolidine-3-carboxamido)methyl)cyclobutyl)amino)-N-(6-(dimethylamino)pyridazin-3-yl)-6-(isopropylamino)nicotinamide] | 0.05 to 0.1 µM | ≤ 0.01 µM
CC(=O)c1c(C)c2cnc(Nc3ccc(N4CCN(C5CCN(C(=O)C6(F)CCC(Nc7nc(NC(C)C)ccc7C(=O)Nc7ccc(N(C)C)nn7)CC6)C5)CC4)cn3)nc2n(C2CCCC2)c1=O (centres unmarked) [CPD-572, 2-((4-(3-(4-(6-((6-acetyl-8-cyclopentyl-5-methyl-7-oxo-7,8-dihydropyrido[2,3-d]pyrimidin-2-yl)amino)pyridin-3-yl)piperazin-1-yl)pyrrolidine-1-carbonyl)-4-fluorocyclohexyl)amino)-N-(6-(dimethylamino)pyridazin-3-yl)-6-(isopropylamino)nicotinamide] | 0.05 to 0.1 µM | ≤ 0.01 µM
CC(C)Nc1ccc(C(=O)Nc2ccc(N(C)C)nn2)c(NC2CCC(C(=O)N3CCC(N4CCN(c5ccc(Nc6ncc7ccc(=O)n(C8CCCC8)c7n6)nc5)CC4)C3)CC2)n1 (centres unmarked) [CPD-535, 2-((4-(3-(4-(6-((8-cyclopentyl-7-oxo-7,8-dihydropyrido[2,3-d]pyrimidin-2-yl)amino)pyridin-3-yl)piperazin-1-yl)pyrrolidine-1-carbonyl)cyclohexyl)amino)-N-(6-(dimethylamino)pyridazin-3-yl)-6-(isopropylamino)nicotinamide] | 0.05 to 0.1 µM | 0.01 to 0.05 µM
CC(=O)c1c(C)c2cnc(Nc3ccc(N4CCN(CC(=O)NCC5CC(Nc6nc(NC(C)C)ccc6C(=O)Nc6cn(C)c(C7CC7)n6)C5)CC4)cn3)nc2n(C2CCCC2)c1=O (centres unmarked) [CPD-277, 2-((3-((2-(4-(6-((6-acetyl-8-cyclopentyl-5-methyl-7-oxo-7,8-dihydropyrido[2,3-d]pyrimidin-2-yl)amino)pyridin-3-yl)piperazin-1-yl)acetamido)methyl)cyclobutyl)amino)-N-(2-cyclopropyl-1-methyl-1H-imidazol-4-yl)-6-(isopropylamino)nicotinamide] | > 0.1 µM | ≤ 0.01 µM
CC(=O)c1c(C)c2cnc(Nc3ccc(N4CCN(C5CCN(C(=O)N6CC7(CCC(Nc8nc(NC(C)C)ccc8C(=O)Nc8ccc(N(C)C)nn8)CC7)C6)C5)CC4)cn3)nc2n(C2CCCC2)c1=O (centres unmarked) [CPD-555, 2-((2-(3-(4-(6-((6-acetyl-8-cyclopentyl-5-methyl-7-oxo-7,8-dihydropyrido[2,3-d]pyrimidin-2-yl)amino)pyridin-3-yl)piperazin-1-yl)pyrrolidine-1-carbonyl)-2-azaspiro[3.5]nonan-7-yl)amino)-N-(6-(dimethylamino)pyridazin-3-yl)-6-(isopropylamino)nicotinamide] | 0.05 to 0.1 µM | ≤ 0.01 µM
CC(=O)c1c(C)c2cnc(Nc3ccc(CN4CCN(CC(=O)N5CCC6(CCC(Nc7nc(NC(C)C)ccc7C(=O)Nc7cc(C)n(C)n7)C6)C5)CC4)cn3)nc2n(C2CCCC2)c1=O (centres unmarked) [CPD-547, 2-((2-(2-(4-((6-((6-acetyl-8-cyclopentyl-5-methyl-7-oxo-7,8-dihydropyrido[2,3-d]pyrimidin-2-yl)amino)pyridin-3-yl)methyl)piperazin-1-yl)acetyl)-2-azaspiro[4.4]nonan-7-yl)amino)-N-(1,5-dimethyl-1H-pyrazol-3-yl)-6-(isopropylamino)nicotinamide] | < 0.05 µM | ≤ 0.01 µM
[2H]C([2H])([2H])Nc1ccc(C(=O)Nc2cn(C)c(C3CC3)n2)c(NC[C@H]2CC[C@H](NC(=O)CN3CCN(c4ccc(Nc5ncc6c(C)c(C(C)=O)c(=O)n(C7CCCC7)c6n5)nc4)CC3)CC2)n1 [CPD-276, 2-(((trans-4-(2-(4-(6-((6-acetyl-8-cyclopentyl-5-methyl-7-oxo-7,8-dihydropyrido[2,3-d]pyrimidin-2-yl)amino)pyridin-3-yl)piperazin-1-yl)acetamido)cyclohexyl)methyl)amino)-N-(2-cyclopropyl-1-methyl-1H-imidazol-4-yl)-6-((methyl-d3)amino)nicotinamide] | > 0.1 µM | ≥ 0.05 µM
CC(=O)c1c(C)c2cnc(Nc3ccc(CN4CCN(CC(=O)N5CCC6(CCC(Nc7nc(NC(C)C)ccc7C(=O)Nc7cn(C)c(C8CC8)n7)C6)C5)CC4)cn3)nc2n(C2CCCC2)c1=O (centres unmarked) [CPD-548, 2-((2-(2-(4-((6-((6-acetyl-8-cyclopentyl-5-methyl-7-oxo-7,8-dihydropyrido[2,3-d]pyrimidin-2-yl)amino)pyridin-3-yl)methyl)piperazin-1-yl)acetyl)-2-azaspiro[4.4]nonan-7-yl)amino)-N-(2-cyclopropyl-1-methyl-1H-imidazol-4-yl)-6-(isopropylamino)nicotinamide] | < 0.05 µM | ≤ 0.01 µM
CNc1ccc(C(=O)Nc2ccc(N(C)C)nn2)c(NC2CCC(CNC(=O)CN3CCN(c4ccc(Nc5ncc6c(C)c(C(C)=O)c(=O)n(C7CCCC7)c6n5)nc4)CC3)C2)n1 (centres unmarked) [CPD-271, 2-((3-((2-(4-(6-((6-acetyl-8-cyclopentyl-5-methyl-7-oxo-7,8-dihydropyrido[2,3-d]pyrimidin-2-yl)amino)pyridin-3-yl)piperazin-1-yl)acetamido)methyl)cyclopentyl)amino)-N-(6-(dimethylamino)pyridazin-3-yl)-6-(methylamino)nicotinamide] | > 0.1 µM | ≥ 0.05 µM
